The record followed here is patent publication US7482455B2, “Chemical compounds” (SmithKline Beecham Corporation, priority 2002, dated 2009).

Counter-ions that a name gives are not always drawn. A value given as a limit tells only on which side of the number the result lay.

The experiment concerns the target T1, hYAK3 (Homo sapiens, UniProt O43781).
T1 construct: containing amino acid residues 124-526 of human YAK3; GST (N); His6 (C); made in house; host or cells: baculovirus expression system in Sf9 cells
T1 sequence (O43781 124-526): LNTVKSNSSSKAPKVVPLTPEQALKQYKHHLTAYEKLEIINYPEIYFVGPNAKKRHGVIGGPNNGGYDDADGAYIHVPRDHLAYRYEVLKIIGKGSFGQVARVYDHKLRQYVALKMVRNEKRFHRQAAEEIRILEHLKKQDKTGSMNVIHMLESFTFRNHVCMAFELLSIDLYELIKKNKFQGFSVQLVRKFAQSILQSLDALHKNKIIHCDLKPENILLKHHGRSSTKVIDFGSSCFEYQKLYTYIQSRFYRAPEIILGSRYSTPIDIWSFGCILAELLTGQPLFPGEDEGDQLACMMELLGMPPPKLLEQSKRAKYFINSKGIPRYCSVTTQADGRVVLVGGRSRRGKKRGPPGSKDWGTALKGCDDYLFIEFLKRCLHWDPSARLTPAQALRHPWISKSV
The experiment can be described thus: YAK3 Scintillation Proximity Assay using Ser164 of myelin basic protein as the phosphoacceptor (kinase assay of purified hYAK3). Type of experiment: biochemical. The settings on record: purified GST-hYak3-His6 (residues 124-526), 4 nM; 0.001 mM ATP; 4 μM Ser164 peptide; 2 hours at room temperature; compounds 50 μM to 0.5 nM. The method, then: YAK3 Scintillation Proximity Assays Using Ser164 of Myelin Basic Protein as the Phosphoacceptor
Source of Ser164 Substrate Peptide:
The biotinylated Ser164, S164A peptide(Biotinyl -LGGRDSRAGS*PMARR—OH), sequence derived from the C-terminus of bovine myelin basic protein (MBP) with Ser162 substituted as Ala162, was purchased from California Peptide Research Inc. (Napa, Calif.), and its purity was determined by HPLC. Phosphorylation occurs at position 164 (marked S* above). The calculated molecular mass of the peptide was 2166 dalton. Solid sample was dissolved at 10 mM in DMSO, aliquoted, and stored at −20° C. until use.
hYAK3: Glutathione-S-Transferase (GST)-hYak3-His6 containing amino acid residues 124-526 of human YAK3 was purified from baculovirus expression system in Sf9 cells using Glutathione Sepharose 4B column chromatography followed by Ni-NTA-Agarose column chromatography. Purity greater than 65% typically was achieved. Samples, in 50 mM Tris, 150 mM NaCl, 10% glycerol, 0.1% Triton, 250 mM imidazole, 10 mM β-mercapto ethanol, pH 8.0.—
were stored at −80° C. until use.
Kinase Assay of Purified hYAK3:
Assays were performed in 96 well (Costar, Catalog No. 3789) or 384 well plates (Costar, Catalog No. 3705). Reaction (in 20, 25, or 40 μl volume) mix contained in final concentrations 25 mM Hepes buffer, pH 7.4; 10 mM MgCl2; 10 mM β-mercapto ethanol; 0.0025% Tween-20; 0.001 mM ATP, 0.1 ? Ci of [ ? -^33P]ATP; purified hYAK3 (7-14 ng/assay; 4 nM final); and 4 μM Ser164 peptide. Compounds, titrated in DMSO, were evaluated at concentrations ranging from 50 μM to 0.5 nM. […] Reactions were incubated for 2 hours at room temperature and were stopped by a 75 ul addition of […] Streptavidin Scintillation Proximity beads (Amersham Pharmacia Biotech, Catalog No. RPNQ 0007) in PBS, pH 7.4, 10 mM EDTA, 0.1% Triton X-100, 1 mM ATP. Under the assay conditions defined above, the Km(apparent) for ATP was determined to be 7.2+/−2.4 μM. Assay results are depicted in Table 1.
As for `COc1ccc2cc(C(=O)O)c(NCc3ccccc3)nc2c1` [Example 3, 2-benzylamino-7-methoxy-quinoline-3-carboxylic acid], the IC50 is < 1 µM.
Regarding `COc1ccc2cc(C(=O)O)c(NCCN(C)C)nc2c1` [Example 6, 2-(2-dimethylamino-ethylamino)-7-methoxy-quinoline-3-carboxylic acid hydrochloride], the IC50 is < 1 µM.
For the compound `COc1ccc2cc(C(=O)O)c(NCCCN3CCOCC3)nc2c1` [Example 8, 7-methoxy-2-(3-morpholin-4-yl-propylamino)-quinoline-3-carboxylic acid], the IC50 lay in the range of 1 to 10 µM.
In turn, `COc1ccc2cc(C(=O)O)c(NCCCNC(=O)OC(C)(C)C)nc2c1` [Example 1, 2-(3-tert-butoxycarbonylamino-propylamino)-7-methoxy-quinoline-3-carboxylic acid] registered an IC50 of 1 to 10 µM.
Regarding `COc1ccc2cc(C(=O)O)c(NCCCN)nc2c1` [Example 2, 2-(3-amino-propylamino)-7-methoxy-quinoline-3-carboxylic acid], the IC50 is < 1 µM.
`COc1ccc2cc(C(=O)O)c(NCCc3ccncc3)nc2c1` [Example 5, 7-methoxy-2-(2-pyridin-4-yl-ethylamino)-quinoline-3-carboxylic acid]: the half-maximal inhibitory concentration (IC50) was < 1 µM.
As to `COc1ccc2cc(C(=O)O)c(NC3Cc4ccccc4C3)nc2c1` [Example 7, 2-(indan-2-ylamino)-7-methoxy-quinoline-3-carboxylic acid], the IC50 was < 1 µM.
As to `COc1ccc2cc(C(=O)O)c(NCCc3ccccc3)nc2c1` [Example 4, 7-methoxy-2-phenethylamino-quinoline-3-carboxylic acid], the IC50 is < 1 µM.
For `O=C(O)c1cc2ccc(O)cc2nc1Nc1ccccc1Cl` [Example 12, 2-(2-Chloro-phenylamino)-7-hydroxy-quinoline-3-carboxylic acid], the 50% inhibitory concentration (IC50) is < 1 µM.
